# Source: US20070249555A1, “Use of Atp Analogues for Treatment of Cardiovascular Diseases” (INSTITUT NATIONAL DE LA SANTE ET DE LA RECHERCHE MEDICALE …, priority 2004, published 2007)
# Columns and labels:
# human P2Y13 receptor = biological target: T1, human P2Y13 receptor (Homo sapiens, UniProt Q9BPV8); assay: forskolin-induced cAMP formation in hP2Y13-CHO-K1 cells; format: cell-based; conditions: forskolin 3 μM; for maximal inhibition (decrease) of forskolin-induced cAMP accumulation / IC50: hP2Y13-CHO-K1 cells, 12 min; for IC50: read-out: IC50 for inhibition of forskolin-induced cAMP accumulation
# T1 construct: expressed in transfected cells
# T1 sequence (Q9BPV8 22-354 limits assumed): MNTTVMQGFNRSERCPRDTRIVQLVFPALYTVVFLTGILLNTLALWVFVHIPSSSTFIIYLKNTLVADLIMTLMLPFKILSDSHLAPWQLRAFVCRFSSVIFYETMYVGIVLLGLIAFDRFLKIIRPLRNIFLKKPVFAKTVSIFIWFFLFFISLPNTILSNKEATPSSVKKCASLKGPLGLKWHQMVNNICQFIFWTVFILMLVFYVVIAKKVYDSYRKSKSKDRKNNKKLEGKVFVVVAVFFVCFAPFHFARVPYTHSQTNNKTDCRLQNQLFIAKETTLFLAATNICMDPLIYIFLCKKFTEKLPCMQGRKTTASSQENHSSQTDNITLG
# Procedure: The cells were incubated with various concentrations of these agents for 12 min as described in “Materials and Methods”. Data are expressed in % on the value with forskolin alone and presented as mean ±S.D. of triplicates in one representative experiment out of 4.
# AR-C69931MX and ADP (at increasing concentrations) were added simultaneously with forskolin to hP2Y13-CHO-K1 cells for a 12 min incubation period. Data are expressed in % of the value with forskolin alone and presented as mean ±S.D. of triplicates in one representative experiment out of 2. (▴): ADP without AR-C69931MW; (●): ADP+AR-C69931MX (100 nM).
# The cyclic AMP assays was performed on CHO-K1 cell lines expressing recombinant P2Y receptors as follows.
# The CHO-K1 cell line stably expressing the human P2Y13 receptor has been previously described (Communi et al., J Biol Chem, 2001, 276: 41479-85). The plasmid of human P2Y12 receptor (hP2Y12-pEFIN5) was obtained from Euroscreen (Gosselies, Belgium) and was stably transfected into CHO-K1 cells by using the FuGENETM6 transfection reagent (Roche Applied Science, Mannheim, Germany). Transfected cells were selected using G418 (400 μg/ml). The hP2Y13-CHO-K1 and HP2Y12-CHO-K1 cells were grown in Ham'S F12 cell culture medium (Invitrogen-France) supplemented with fetal bovine serum (10%, v/v), penicillin (100 units/ml), streptomycin (100 μg/ml) and G418 (400 μg/ml).
# The stably transfected CHO-K1 cells (200,000 cells/dish) were seeded on 35-mm diameter cell culture dishes in complete medium one day before the experiment. Cells were incubated for 2 hours in Krebs-Ringer-Hepes (KRH) buffer (124 mM NaCl, 5 mM KCl, 1.25 mM MgSO4, 1.45 mM CaCl2, 1.25 mM KH2PO4, 25 mM HEPES, pH 7.4, and 8 mM D-glucose) containing 25 μM Rolipram. Nucleotides were then added in presence of 3 μM forskolin, usually for a 12 min incubation (37° C.). The reactions were stopped by aspiration of the incubation medium and addition of 1 ml of 0.1 M HCl. The lysates were then vacuum dried and re-suspended in an appropriate volume of water. Cyclic AMP was quantified by 125l radioimmunoassay, as described in Communi et al., J Biol Chem, 2001, 276: 41479-85.
# [1] = tested on: liver of P2Y1-/- C57BL/6J mice; assay: in situ TG-HDL2 endocytosis by perfused liver of P2Y1-/- mouse; format: in vivo; conditions: liver perfused in situ 10 min at 37° C., AR-C69931MX 10 μM
# Procedure: FIG. 4C: The liver from P2Y1^−/−C57BL/6J male mice (25 weeks old) was perfused in situ for 10 minutes at 37° C. in HBSS medium with 75 μg/ml of ^125I-TG-HDL2 in the presence of PBS (a) or AR-C69931MX 10 μM (b). ^125I radioactivity associated with the livers was determined (n>3); (*) (p<0.05) (unpaired t-test).
# The perfused mouse liver experiments were carried out on C57BL/6J male mice, 8 weeks old, (Charles River Cie) or P2Y1^−/− mouse, 25 weeks old. Mouse were anesthetized by intraperitoneal injections of 200 μl ketamine hydrochloride (Merial)-xylazine hydrochloride 2% (Bayer)-PBS (1:1:3 v/v). […] The livers were perfused in situ for 10 minutes at 37° C. in HBSS medium containing 75 μg/ml of ^125I-TG-HDL2 (5000 cpm/ng of proteins) or ^3H-cholesteryl-ether-TG-HDL2 (15000 dpm/mg of cholesteryl ester), with PBS apolipoprotein A-1 (ApoA-1, 10 μg/ml) or AR-C69931MX (10 μM).
# Livers were extensively washed at 4° C. in PBS and radioactivity associated per […] of liver was counted, (n=7 per group). Values represent means ±SEM, with p<0.05 (unpaired t-test).
# plain CHO-K1 cells = assay: forskolin-induced cAMP accumulation in plain CHO-K1 cells (control); format: cell-based; conditions: untransfected control cells
# human P2Y12 receptor = human P2Y12 receptor (Homo sapiens, UniProt Q9H244); assay: forskolin-induced cAMP formation in hP2Y12-CHO-K1 cells; format: cell-based
# human P2Y12 receptor, sequence (Q9H244 whole entry): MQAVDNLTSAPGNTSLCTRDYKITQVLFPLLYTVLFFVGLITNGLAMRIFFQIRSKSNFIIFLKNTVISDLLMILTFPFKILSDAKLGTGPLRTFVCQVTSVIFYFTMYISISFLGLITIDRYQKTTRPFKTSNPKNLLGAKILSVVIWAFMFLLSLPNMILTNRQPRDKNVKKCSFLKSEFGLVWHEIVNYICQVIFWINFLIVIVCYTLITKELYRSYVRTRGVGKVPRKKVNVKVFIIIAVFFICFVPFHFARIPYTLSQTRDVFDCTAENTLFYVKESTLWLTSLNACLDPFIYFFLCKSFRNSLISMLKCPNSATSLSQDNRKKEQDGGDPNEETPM
# Procedure: FIG. 2C: Effect ADP (▴), AR-C69931MX (●) and ADP in presence of AR-C69931MX (100 nM) (▪) on forskolin (FSK: 3 μM)-induced cAMP formation in hP2Y12-CHO-K1 cells. The cells were incubated with various concentrations of these agents for 12 min. Data are expressed in % of the value with forskolin alone and presented as mean ±S.E.M. of 3 (ADP) or 2 (AR-C69931MX) independent experiments, each performed in triplicates.
# The stably transfected CHO-K1 cells (200,000 cells/dish) were seeded on 35-mm diameter cell culture dishes in complete medium one day before the experiment. […] Cyclic AMP was quantified by 125l radioimmunoassay, as described in Communi et al., J Biol Chem, 2001, 276: 41479-85.
smiles,measurement,setting,value
"CSCCNc1nc(SCCC(F)(F)F)nc2c1ncn2[C@@H]1O[C@H](COP(=O)(O)OP(=O)(O)C(Cl)(Cl)P(=O)(O)O)[C@@H](O)[C@H]1O [AR-C69931MX, N-[2-(methylthio)ethyl]-2-[(3,3,3-trifluoropropyl)thio]-5′-adenylic acid, monoanhydride with dichloromethylenebisphosphonic acid]",behaviour at P2Y13 receptor (modulation of ADP effect on cAMP),human P2Y13 receptor; AR-C69931MX 100 nM with increasing ADP,partial agonist
same,maximal inhibition (decrease) of forskolin-induced cAMP accumulation,human P2Y13 receptor,25%
same,IC50,human P2Y13 receptor,500 ± 100 pM
same,increase of TG-HDL2 internalization by the liver above the control,[1],38%
same,effect on cAMP accumulation in plain CHO-K1 cells,plain CHO-K1 cells,no effect
same,effect on ADP inhibition of cAMP accumulation,human P2Y12 receptor; AR-C69931MX 100 nM with ADP,shifted the ADP inhibition to higher concentrations
same,effect per se on cAMP accumulation by forskolin,"human P2Y12 receptor; forskolin 3 μM, 12 min",no effect
"Nc1ncnc2c1ncn2[C@@H]1O[C@H](COP(=O)(O)OP(=O)(O)O)[C@@H](O)[C@H]1O [ADP, adenosine diphosphate, reference compound]",maximal inhibition (decrease) of forskolin-induced cAMP accumulation,human P2Y13 receptor,70%
same,IC50,human P2Y13 receptor,600 ± 200 pM
